Experimental data taken from patent publication US20160045503A1, “FORMULATIONS CONTAINING REVERSIBLE COVALENT COMPOUNDS” (PRINCIPIA BIOPHARMA INC., priority 2012, published 2016).

Legend:
human recombinant Btk = human recombinant Btk (Homo sapiens, UniProt Q06187); test: Btk Enzymatic Activity Assay (Caliper-based kinase assay); assay type: biochemical; conditions: human recombinant Btk 2 nM, ATP 40 uM, peptide substrate 1 uM, room temperature, 3 h
Experimental: A Caliper-based kinase assay (Caliper Life Sciences, Hopkinton, Mass.) was used to measure inhibition of Btk kinase activity of a compound of Formula (I). […] The reaction was then terminated with EDTA, final concentration 20 mM and the phosphorylated reaction product was quantified on a Caliper Desktop Profiler (Caliper LabChip 3000). […] This value is presented as the IC50.

protein target = test: Reversibility of Binding (compound in solution before and after denaturation or digestion of the target, HPLC-MS/MS); conditions: for Compound in solution in the denatured or digested state?: after denaturation with 5 M guanidine hydrochloride and digestion with trypsin; for compound in solution following perturbation of the target: perturbed state; for Compound in solution in the native state?: target in excess over compound
Experimental: The following approach was developed to differentiate compounds that form irreversible bonds with their targets, such as acrylamide compounds, from compound that bind reversibly. […] The reactions were then treated with perturbations including both denaturation with 5 M guanidine hydrochloride and digestion with trypsin, disrupting proper folding of the target. […] The concentration of compound in solution was assessed both preceding and following perturbation using high performance liquid chromatography (HPLC) coupled to tandem mass spectrometry.

[1] = Determination of Bioavailability, stomach (oral gavage) v. intraduodenal administration; assay type: in vivo, Rats; conditions: rat; for % increase: ID versus PO; for AUC / Cmax / bioavailability: plasma
Experimental: Rats with surgically implanted intra-duodenal catheters were obtained commercially. Rats were dosed with solution or suspension of (S)-2-(2-((4-amino-3-(2-fluoro-4-phenoxyphenyl)-1H-pyrazolo[3,4-d]pyrimidin-1-yl)methyl)pyrrolidine-1-carbonyl)-4-methyl-4-morpholinopent-2-enenitrile; via bolus injection: oral gavage was done to measure exposure after oral dosing, or dosing via administration through the intra-duodenal catheter to measure exposure bypassing the stomach. […] Blood was withdrawn at time points out to 24 hours and compound quantitated via LC/MS/MS to obtain plasma concentrations. PK parameters were calculated via commercially available software and measures of exposure were used to assess differences in dosing routes. The table below summarizes exposures as measured by area under the curve (AUC), concentration at its maximum (Cmax), and bioavailability.

[2] = 20 mg/kg, ID (intra-duodenal), 20 mg/kg in 15% cyclodextrin, Experiment 1
[3] = 20 mg/kg, ID (intra-duodenal), 20 mg/kg in 15% cyclodextrin, Experiment 2
[4] = 100 mg/kg, ID 100 mg/kg, 0.5% xanthum gum suspension
[5] = po, 20 mg/kg, 20 mg/kg in 15% cyclodextrin, Experiment 1
[6] = po, 20 mg/kg, 20 mg/kg in 15% cyclodextrin, Experiment 2
[7] = po, 100 mg/kg, PO 100 mg/kg, 0.5% xanthum gum suspension

human recombinant Btk, sequence (Q06187 whole entry): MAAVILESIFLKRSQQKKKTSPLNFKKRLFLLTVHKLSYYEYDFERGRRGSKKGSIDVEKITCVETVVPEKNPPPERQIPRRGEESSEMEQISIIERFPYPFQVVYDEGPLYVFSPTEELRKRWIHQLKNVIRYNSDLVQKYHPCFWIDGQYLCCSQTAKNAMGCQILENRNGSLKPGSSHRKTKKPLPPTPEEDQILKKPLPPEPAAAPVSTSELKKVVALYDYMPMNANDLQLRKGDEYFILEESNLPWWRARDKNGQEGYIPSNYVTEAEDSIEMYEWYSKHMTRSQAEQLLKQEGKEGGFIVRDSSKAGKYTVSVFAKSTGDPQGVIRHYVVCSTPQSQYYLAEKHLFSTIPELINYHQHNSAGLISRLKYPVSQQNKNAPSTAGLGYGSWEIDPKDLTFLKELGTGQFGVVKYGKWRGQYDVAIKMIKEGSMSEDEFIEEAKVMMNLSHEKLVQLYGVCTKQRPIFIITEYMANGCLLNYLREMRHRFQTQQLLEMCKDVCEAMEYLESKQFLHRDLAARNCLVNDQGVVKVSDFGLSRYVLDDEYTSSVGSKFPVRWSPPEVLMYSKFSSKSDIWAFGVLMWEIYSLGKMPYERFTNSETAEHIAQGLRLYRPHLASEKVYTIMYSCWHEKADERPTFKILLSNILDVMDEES

Compound `C[C@@H](Cn1nc(-c2ccc(Oc3ccccc3)cc2F)c2c(N)ncnc21)NC(=O)C(C#N)=CC(C)(C)N` [Cpd 195, (S)-4-amino-N-(1-(4-amino-3-(2-fluoro-4-phenoxyphenyl)-1H-pyrazolo[3,4-d]-pyrimidin-1-yl)propan-2-yl)-2-cyano-4-methylpent-2-enamide] has an IC50 (human recombinant Btk) of 6 nM.

Compound `N#CC(=CC1CC1)C(=O)N1CCC[C@H]1Cn1nc(-c2ccc(Oc3c(F)cccc3F)cc2F)c2c(N)ncnc21` [Cpd 44B, (S)-2-(2-((4-amino-3-(2-fluoro-4-(2,6-difluorophenoxy)phenyl)-1H-pyrazolo[3,4-d]pyrimidin-1-yl)methyl)pyrrolidine-1-carbonyl)-3-cyclopropylacylonitrile] has an IC50 (human recombinant Btk) of 3 nM.

In the case of `CNC(C)(C)C=C(C#N)C(=O)N1CCC[C@H]1Cn1nc(-c2ccc(Oc3cccc(F)c3F)cc2F)c2c(N)ncnc21` [Cpd 105B], the IC50 (human recombinant Btk) is reported as 25.5 nM.

Work on `CC(C)C=C(C#N)C(=O)N1CCC[C@H]1Cn1nc(-c2ccc(Oc3cccc(F)c3F)cc2F)c2c(N)ncnc21` [Cpd 102B, (S)-2-(2-((4-amino-3-(4-(2,3-difluorophenoxy)-2-fluorophenyl)-1H-pyrazolo[3,4-d]pyrimidin-1-yl)methyl)pyrrolidine-1-carbonyl)-4-methylpent-2-enenitrile] yielded an IC50 (human recombinant Btk) of 6 nM.

For `CNC(C)(C)C=C(C#N)C(=O)N1CCC[C@@H]1Cn1nc(C2(Oc3ccccc3)C=CC=CC2F)c2c(N)ncnc21` (stereo partly drawn) [Cpd 83A, (R)-2-(2-((4-amino-3-(2-fluoro-1-phenoxyphenyl)-1H-pyrazolo[3,4-d]pyrimidin-1-yl)methyl)pyrrolidine-1-carbonyl)-4-methyl-4-(methylamino)pent-2-enenitrile], the IC50 (human recombinant Btk) was 1.4 nM.

Compound `N#CC(=CC1(N)CC1)C(=O)N1CCC[C@@H]1Cn1nc(-c2ccc(Oc3ccccc3)cc2F)c2c(N)ncnc21` [Cpd 90A, (R)-2-(2-((4-amino-3-(2-fluoro-4-phenoxyphenyl)-1H-pyrazolo[3,4-d]pyrimidin-1-yl)methyl)pyrrolidine-1-carbonyl)-3-(1-aminocyclopropyl)acrylonitrile] has an IC50 (human recombinant Btk) of 52 nM.

In the case of `C=CC(=O)N1CCC[C@@H](n2nc(-c3ccc(Oc4ccccc4)cc3)c3c(N)ncnc32)C1` [reference compound], the “Compound in solution in the denatured or digested state?” value (protein target) is reported as “no”, the “depletion of compound from solution in the native (folded) state” value (protein target; before perturbation) is reported as “depleted from solution” and the “compound in solution following perturbation of the target” value (protein target) is reported as “depleted from solution”. The “Compound in solution in the native state?” value (protein target; before perturbation) was “no”.

With `N#CC(=CC1CC1)C(=O)N1CCCC1Cn1nc(-c2ccc(Oc3ccccc3)cc2)c2c(N)ncnc21` (stereo not shown) [Cpd 2, 2-(2-((4-amino-3-(4-phenoxyphenyl)-1H-pyrazolo[3,4-d]pyrimidin-1-yl)methyl)pyrrolidine-1-carbonyl)-3-cyclopropylacrylonitrile] the IC50 (human recombinant Btk) was 3.7 nM.

For `N#CC(=CC1CC1)C(=O)N1CCC[C@@H]1Cn1nc(-c2ccc(Oc3ccccc3)cc2F)c2c(N)ncnc21` [Cpd 27A, (R)-2-(2-((4-amino-3-(2-fluoro-4-phenoxyphenyl)-1H-pyrazolo[3,4-d]pyrimidin-1-yl)methyl)pyrrolidine-1-carbonyl)-3-cyclopropylacrylonitrile], the “Compound in solution in the denatured or digested state?” value (protein target) was “yes”, the “compound in solution following perturbation of the target” value (protein target) was “returned to solution” and the “Compound in solution in the native state?” value (protein target; before perturbation) was “no”.

`CC(C)(C)C=C(C#N)C(=O)N1CCC(n2nc(-c3ccc(Oc4ccccc4)cc3)c3c(N)ncnc32)CC1` [Cpd 8, 2-(4-(4-amino-3-(4-phenoxyphenyl)-1H-pyrazolo[3,4-d]pyrimidin-1-yl)piperidine-1-carbonyl)-4,4-dimethylpent-2-enenitrile] gave an IC50 (human recombinant Btk) of 130 nM.

With `CC(C)(C)C=C(C#N)C(=O)N1CCCC1Cn1nc(-c2ccc(Oc3ccccc3)cc2)c2c(N)ncnc21` (stereo not shown) [Cpd 10, 2-(2-((4-amino-3-(4-phenoxyphenyl)-1H-pyrazolo[3,4-d]pyrimidin-1-yl)methyl)pyrrolidine-1-carbonyl)-4,4-dimethylpent-2-enenitrile] the IC50 (human recombinant Btk) was 5.4 nM.

For `CC(C)(C)C=C(C#N)C(=O)N1CCC[C@H]1Cn1cc(-c2ccc(Oc3cccc(F)c3F)cc2)c2c(N)ncnc21` [Cpd 173B, (S)-2-(2-((4-amino-5-(4-(2,3-difluorophenoxy)phenyl)-7H-pyrrolo[2,3-d]pyrimidin-7-yl)methyl)pyrrolidine-1-carbonyl)-4,4-dimethylpent-2-enenitrile], the IC50 (human recombinant Btk) was 34 nM.

In the case of `CC(C)(C=C(C#N)C(=O)N1CCC[C@H]1Cn1nc(-c2ccc(Oc3ccccc3)cc2F)c2c(N)ncnc21)N1CCOCC1` [Cpd 95B, (S)-2-(2-((4-amino-3-(2-fluoro-4-phenoxyphenyl)-1H-pyrazolo[3,4-d]pyrimidin-1-yl)methyl)pyrrolidine-1-carbonyl)-4-methyl-4-morpholinopent-2-enenitrile], the “% increase” value ([1]; 20 mg/kg in 15% cyclodextrin, Experiment 1) is reported as 409%, the “% increase” value ([1]; 20 mg/kg in 15% cyclodextrin, Experiment 2) is reported as 232% and the “% increase” value ([1]; 100 mg/kg, 0.5% xanthum gum suspension) is reported as 220%. For the same compound, the AUC [1, 2] was 630 ng·h/mL, the Cmax [1, 2] was 1400 ng/mL and the AUC [1, 3] was 1500 ng·h/mL. For the same compound, the Cmax [1, 3] was 1650 ng/mL, the bioavailability [1, 2] was 27% and the bioavailability [1, 3] was 64.6%. The AUC [1, 4] was 1900 ng·h/mL, the Cmax [1, 4] was 870 ng/mL and the bioavailability [1, 4] was 16.3%. The AUC [1, 5] was 154 ng·h/mL, the Cmax [1, 5] was 145 ng/mL and the AUC [1, 6] was 647 ng·h/mL. The Cmax [1, 6] was 406 ng/mL, the bioavailability [1, 5] was 6.6% and the bioavailability [1, 6] was 27.8%. For the same compound, the AUC [1, 7] was 858 ng·h/mL, the Cmax [1, 7] was 149 ng/mL and the bioavailability [1, 7] was 7.4%.

With `COc1cc(-c2nn(CC3CCCN3C(=O)C(C#N)=CC3CC3)c3ncnc(N)c23)ccc1Oc1ccc(Cl)c(Cl)c1` (stereo not shown) [Cpd 5] the IC50 (human recombinant Btk) was 1 nM.

With “(S)-4-amino-2-(2-((4-amino-3-(4-(2,3-difluorophenoxy)-2-fluorophenyl)-1H-pyrazolo[3,4-d]pyrimidin-1-yl)methyl)pyrimidine-1-carbonyl)-4-methylpent-2-enenitrile [Cpd 104B]” the IC50 (human recombinant Btk) was 20 nM.
